Reference: patent publication US7169750B2, “Methods to mobilize progenitor/stem cells” (Anormed, Inc., priority 2001, dated 2007)
Read-outs that look alike come from different tables or passages of the source.

Tests used:
[1] = system: progenitors in DNA synthesis (S) phase; conditions: prior to and 1, 3, 6, 9 and 24 hours after injection
Method: For the progenitor cell numbers and cycling status, the numbers of CFU-GM, BFU-E and CFU-GEMM in methylcellulose cultures by stimulation of the cells with 1 Unit (U)/ml recombinant human (rhu) erythropoietin, 100 U/ml rhu granulocyte-macrophage colony stimulating factor (GM-CSF), 100 U/ml rhu interleukin-3 (IL-3) and 50 ng/ml rhu steel factor (SLF=stem cell factor (SCF)). […] For both types of assays, colonies were scored after 14 day incubation in a humidified atmosphere with 5% CO2 and lowered (5%) O2 tension. Cell cycling status of progenitors was measured using a high specific activity tritiated thymidine kill technique as previously described (Broxmeyer, H. E., et al., Exp. Hematol. (1989) 17:455–459).

CXCR4 chemokine receptor = CXCR4 chemokine receptor (Homo sapiens, UniProt P61073); conditions: Gerlach, et al., J.Biol. Chem. (2001); cited from earlier work
[2] = system: rats with ligated left coronary artery; conditions: administered within hours after induction of cardiac ischemia, with or without rhG-CSF
Method: Adult rats are anesthetized and a thoracotomy is performed. The descending branch of the left coronary artery is ligated and not reperfused. […] Control rats are not treated with the reagents. The animals are monitored at one-week intervals by echocardiography and MRI. The experiment is terminated at 2, 6 to 12 weeks post-surgery. On the day of sacrifice, the hemodynamic functions are analyzed for left ventricle-end diastolic pressure, left ventricle-developed pressure and the rate of rise and fall of left ventricle pressure. The heart is then arrested in diastole and perfuised via the abdominal aorta to flush residual blood from the vascular network of the myocardium. This is followed by perfusion of the heart with 10% formalin. Several slices are made through the fixed heart and these are embedded in paraffin and sections. The sections are stained and analyzed by light microscopy to determine the size of the infarct in the treated and control animals. Tissue sections from hearts taken at 2 weeks after surgery are stained with antibodies specific for immature, developing myocyte and blood vessel proteins and analyzed by confocal microscopy. The immunohistochemical analysis involves the identification of transcription factors and surface markers expressed in early stages of myocyte development.

WBC = conditions: single dose of 80 μg/kg; Phase 1 study (Liles, et al.); cited from earlier work
nucleated cells = conditions: T = 3 h; average of 5 donors; 80 μg/kg s.c.
CFU-GM = conditions: 80 μg/kg s.c.
Method: (§1) Five healthy human volunteers having initial white blood cell counts of 4,500–7,500 cells/mm^3 were used in the study. […] Blood samples were obtained via catheter prior to the dose, and at various times up to 24 hours after dosing.
(§2) All progenitor cell results are based on the scoring of 3 culture plates per assay per point.
(§3) For the progenitor cell numbers and cycling status, the numbers of CFU-GM, BFU-E and CFU-GEMM in methylcellulose cultures by stimulation of the cells with 1 Unit (U)/ml recombinant human (rhu) erythropoietin, 100 U/ml rhu granulocyte-macrophage colony stimulating factor (GM-CSF), 100 U/ml rhu interleukin-3 (IL-3) and 50 ng/ml rhu steel factor (SLF=stem cell factor (SCF)). The CFU-GM were also evaluated in agar cultures stimulated with 100 U/ml rhu GM-CSF and 50 ng/ml rhu SLF. For both types of assays, colonies were scored after 14 day incubation in a humidified atmosphere with 5% CO2 and lowered (5%) O2 tension. Cell cycling status of progenitors was measured using a high specific activity tritiated thymidine kill technique as previously described (Broxmeyer, H. E., et al., Exp. Hematol. (1989) 17:455–459).

[3] = system: granulocyte macrophage (CFU-GM), erythroid (BFU-E), and multipotential (CFU-GEMM) progenitor cells
Method: as §1, §2, §3

progenitor cells = conditions: AMD3100 5 mg/Kg s.c. + MIP-1α 5 μg I.V., 11 hours after rhu G-CSF or saline, 1 hour prior to assessing the blood
Method: Groups of mice were randomized to receive control diluent (saline) or G-CSF at a dose of 2.5 μg per mouse, twice a day, for two days via s.c. injection. […] One hour later, the mice were sacrificed and the number of progenitor cells per mL of blood were measured.

[4] = system: circulating CD34+ progenitor/stem cells; conditions: single dose of 80 μg/kg; 6 hour time point; Phase 1 study (Liles, et al.); cited from earlier work

Chain of CXCR4 chemokine receptor (P61073 whole entry): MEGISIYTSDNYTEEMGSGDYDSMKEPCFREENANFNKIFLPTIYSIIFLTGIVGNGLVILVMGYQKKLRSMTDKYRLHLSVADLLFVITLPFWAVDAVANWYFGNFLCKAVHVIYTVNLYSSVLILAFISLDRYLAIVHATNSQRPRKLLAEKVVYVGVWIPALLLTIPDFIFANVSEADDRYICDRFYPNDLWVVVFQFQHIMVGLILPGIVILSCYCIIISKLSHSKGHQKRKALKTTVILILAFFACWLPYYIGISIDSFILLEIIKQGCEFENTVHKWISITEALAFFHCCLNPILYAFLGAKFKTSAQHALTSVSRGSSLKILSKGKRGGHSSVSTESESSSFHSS

In the case of c1cc(CN2CCCNCCNCCCNCC2)ccc1CN1CCCNCCNCCCNCC1 [AMD3100, 1,1′-[1,4-phenylene-bis(methylene)]-bis-1,4,8,11-tetraazacyclotetradecane], the “cycling state of progenitors” value [1] is listed as “slow or non-cycling state”, the “action at the CXCR4 chemokine receptor” value (CXCR4 chemokine receptor) is listed as “antagonist” and the “cardiac remodeling and scar formation” value [2] is listed as “block to cardiac remodeling and scar formation”. The “mobilization of bone marrow stem cells” value [2] was “mobilizes bone marrow stem cells rapidly”, the regeneration of myocardium [2] was “regeneration of the dead myocardium” and the WBC count (WBC) was 17,000 / μl. The “PBL-LD nucleated cellularity Fold Change Compared to TIME = 0, MEAN” value (nucleated cells) was 2.86 fold, the “PBL-US nucleated cellularity Fold Change Compared to TIME = 0, MEAN” value (nucleated cells) was 2.80 fold and the “CFU-GM agar culture fold change from T=0” value (CFU-GM; P4, T = 24 h) was 1.30 fold. The “CFU-GM agar culture fold change from T=0” value (CFU-GM; P5, T = 3 h) was 6.40 fold, the “CFU-GM agar culture fold change from T=0” value (CFU-GM; P5, T = 24 h) was 2.20 fold and the “CFU-GEMM methylcellulose culture fold change from T=0” value ([3]; P1, T = 1 h, 80 μg/kg s.c.) was 2.07 fold. The “CFU-GEMM methylcellulose culture fold change from T=0” value ([3]; P1, T = 24 h, 80 μg/kg s.c.) was 1.12 fold, the “CFU-GM methylcellulose culture fold change from T=0” value ([3]; P1, T = 24 h, 80 μg/kg s.c.) was 1.10 fold and the “BFU-E methylcellulose culture fold change from T=0” value ([3]; P2, T = 1 h, 80 μg/kg s.c.) was 1.48 fold. For the same compound, the “BFU-E methylcellulose culture fold change from T=0” value ([3]; P3, T = 1 h, 80 μg/kg s.c.) was 2.30 fold, the “CFU-GM methylcellulose culture fold change from T=0” value ([3]; P3, T = 1 h, 80 μg/kg s.c.) was 3.70 fold and the “CFU-GEMM methylcellulose culture fold change from T=0” value ([3]; P3, T = 9 h, 80 μg/kg s.c.) was 2.47 fold. The “CFU-GEMM methylcellulose culture fold change from T=0” value ([3]; P3, T = 24 h, 80 μg/kg s.c.) was 0.69 fold, the “BFU-E methylcellulose culture fold change from T=0” value ([3]; P4, T = 3 h, 80 μg/kg s.c.) was 2.60 fold and the “CFU-GEMM methylcellulose culture fold change from T=0” value ([3]; P4, T = 6 h, 80 μg/kg s.c.) was 9.10 fold. For the same compound, the “BFU-E methylcellulose culture fold change from T=0” value ([3]; P4, T = 24 h, 80 μg/kg s.c.) was 0.79 fold, the “CFU-GEMM methylcellulose culture fold change from T=0” value ([3]; P4, T = 24 h, 80 μg/kg s.c.) was 0.98 fold and the “CFU-GEMM methylcellulose culture fold change from T=0” value ([3]; P5, T = 3 h, 80 μg/kg s.c.) was 4.43 fold. The “CFU-GM methylcellulose culture fold change from T=0” value ([3]; P5, T = 3 h, 80 μg/kg s.c.) was 8.40 fold, the “BFU-E methylcellulose culture % CHG” value ([3]; T = 1 h, mean of five donors, 80 μg/kg s.c.) was 98.9% and the “time of maximal fold increases in circulating levels of progenitor cells” value ([3]; after injection, all five donors) was 6 h. For the same compound, the “mobilization of progenitor cells in combination with mu MIP-1α” value (progenitor cells) was “additive to greater than additive” and the “peak increase in circulating CD34+ progenitor/stem cells” value [4] was 6 fold.
